Measured values as given in article PMC7044277 (Nature Communications, 2020).
Values joined by “and” are separate entries in the source; they are usually repeats but may differ in a detail not shown here. Identical values can stand only once. Like-named read-outs stand apart in the source and are kept apart here.

What was measured:
DRD4 (D4.4 variant) = target: T1, DRD4 (D4.4 variant) (Homo sapiens, UniProt P21917); test: Gαi/o-mediated cAMP inhibition (GloSensor); type: cell-based; settings: DRD4; agonist, cAMP inhibition; read-out: EC50 ± SEM
T1 sequence (P21917 1-419): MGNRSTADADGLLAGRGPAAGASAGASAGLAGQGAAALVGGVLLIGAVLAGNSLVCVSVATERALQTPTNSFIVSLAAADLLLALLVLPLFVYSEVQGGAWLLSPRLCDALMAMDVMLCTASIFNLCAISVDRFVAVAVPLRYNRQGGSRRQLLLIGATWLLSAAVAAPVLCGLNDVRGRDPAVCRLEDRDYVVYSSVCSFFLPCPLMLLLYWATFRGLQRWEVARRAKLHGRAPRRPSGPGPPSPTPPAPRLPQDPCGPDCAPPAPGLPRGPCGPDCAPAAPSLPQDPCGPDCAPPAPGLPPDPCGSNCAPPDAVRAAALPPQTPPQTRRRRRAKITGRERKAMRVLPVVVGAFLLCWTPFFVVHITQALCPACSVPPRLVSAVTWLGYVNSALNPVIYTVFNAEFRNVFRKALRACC

DRD2 (D2 long receptor) = DRD2 (D2 long receptor) (Homo sapiens, UniProt P14416); test: β-arrestin2 recruitment (Tango), HTLA cells; type: cell-based; settings: for Response, Fig_S11c dose-response: individual replicates
Sequence of DRD2 (D2 long receptor) (P14416 whole entry): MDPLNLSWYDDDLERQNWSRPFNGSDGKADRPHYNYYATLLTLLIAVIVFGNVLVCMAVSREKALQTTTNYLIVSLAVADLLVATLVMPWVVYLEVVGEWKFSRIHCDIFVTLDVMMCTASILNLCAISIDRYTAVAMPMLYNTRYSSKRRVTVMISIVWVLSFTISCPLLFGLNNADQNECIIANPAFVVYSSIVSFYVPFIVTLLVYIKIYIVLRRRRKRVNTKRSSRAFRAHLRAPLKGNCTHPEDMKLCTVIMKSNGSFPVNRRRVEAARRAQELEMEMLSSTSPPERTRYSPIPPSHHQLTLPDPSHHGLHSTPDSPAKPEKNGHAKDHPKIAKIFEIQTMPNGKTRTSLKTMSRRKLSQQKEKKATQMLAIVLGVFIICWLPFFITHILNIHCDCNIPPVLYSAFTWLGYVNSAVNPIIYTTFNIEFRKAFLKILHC

320 non-olfactory GPCRs = type: cell-based; settings: replicate values, Fig_4g;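 further: fold over basal response of each receptor without drug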
DRD2 F1103.28A [1] = target: T2, DRD2 F1103.28A (Homo sapiens, UniProt P14416, F110A); test: β-arrestin2 recruitment (Tango), mutant; type: cell-based; set-up: expressed in transfected cells; host or cells: HEK293T (ATCC CRL-11268)
T2 sequence (P14416 whole entry F110A): as the sequence (P14416 whole entry) above, with F110A counted along it

DRD2 F1103.28A [2] = target: T2, DRD2 F1103.28A; type: binding; set-up: expressed in transfected cells; host or cells: HEK293T (ATCC CRL-11268)

CCOc1cccc2cc(C(C)NCC3(O)CCCCC3)oc12 (stereo not shown) [O4LE6]
EC50 (DRD4 (D4.4 variant)): > 10000 nM | EC50 (DRD2 (D2 long receptor); DRD2, β-arrestin2 recruitment (Tango), read-out: EC50 ± SEM): 43.2 ± 12.3 nM | response, Fig_S11c dose-response source data (DRD2 (D2 long receptor); Fig_S11c, Log[Drug] -5, replicate values): 112.633 and 105.275 and 98.5438 and 105.099 and 112.565 | response, Fig_S11e dose-response source data (DRD2 (D2 long receptor); Log[Drug] -6.52, replicate values): 78.7922 | response, Fig_S11e dose-response source data (DRD2 (D2 long receptor); Log[Drug] -7, replicate values): 72.0078 and 74.6368 and 66.9645 and 59.2359 and 63.6719 and 58.7266 and 59.326 and 73.941 and 65.8379 | response, Fig_S11e dose-response source data (DRD2 (D2 long receptor); Log[Drug] -7.52, replicate values): 37.8418 and 44.9592 and 58.6118 and 43.0054 and 55.0074 and 48.586 and 48.419 and 72.5528 and 64.0624 | response, Fig_S11e dose-response source data (DRD2 (D2 long receptor); Log[Drug] -8, replicate values): 15.3268 and 15.1148 and 16.7449 and 27.4037 and 26.6311 and 23.8074 and 19.9269 and 24.9446 and 21.2413 | response, Fig_S11e dose-response source data (DRD2 (D2 long receptor); Log[Drug] -8.52, replicate values): 4.375 and 3.995 and 5.741 and 6.567 and 6.611 and 6.201 and 5.912 and 5.884 and 4.408 | response, Fig_S11e dose-response source data (DRD2 (D2 long receptor); Log[Drug] -9, replicate values): 3.657 and 3.173 and 3.675 and 2.9749 and 3.073 and 3.47 and 2.665 and 3.951 and 5.063 | response, Fig_S11e dose-response source data (DRD2 (D2 long receptor); Log[Drug] -9.52, replicate values): 2.783 and 2.8126 and 2.809 and 2.846 and 2.583 and 2.72 and 1.765 and 1.2028 and 2.471 | response, Fig_S11e dose-response source data (DRD2 (D2 long receptor); Log[Drug] -10, replicate values): 3.027 and 2.494 and 2.707 and 2.723 and 2.793 and 2.57 and 1.765 and 1.586 and 1.567 | response, Fig_S11e dose-response source data (DRD2 (D2 long receptor); Log[Drug] -10.52, replicate values): 2.869 and 2.577 and 2.7076 and 2.741 and 2.285 and 2.767 and 1.576 and 1.95 and 2.499 | response, Fig_S11e dose-response source data (DRD2 (D2 long receptor); Log[Drug] -11, replicate values): 2.286 and 2.31 and 2.497 and 2.358 and 2.303 and 2.397 and 3.984 and 1.567 and 2.499 | response, Fig_S11e dose-response source data (DRD2 (D2 long receptor); Log[Drug] -11.52, replicate values): 2.417 and 3.403 and 2.6551 and 2.344 and 2.523 and 2.357 and 1.752 and 2.8723 and 2.669 | response, Fig_S11e dose-response source data (DRD2 (D2 long receptor); Log[Drug] -12, replicate values): 2.236 and 2.366 and 2.369 and 2.676 and 2.167 and 2.127 and 2.148 and 1.023 and 3.799 | Emax (DRD2 (D2 long receptor); HTLA, read-out: Emax relative to quinpirole response, DRD2, Tango): 105% | β-arrestin2 recruitment response at DRD2 (source data, replicate values) (DRD2 (D2 long receptor); Log[Drug] -6.52): 78.7922 | Response, Fig_S11c dose-response (DRD2 (D2 long receptor); Log[Drug] -6.52): 78.7922 | β-arrestin2 recruitment response at DRD2 (source data, replicate values) (DRD2 (D2 long receptor); Log[Drug] -7): 72.0078 and 74.6368 and 66.9645 and 59.2359 and 63.6719 and 58.7266 and 59.326 and 73.941 and 65.8379 | Response, Fig_S11c dose-response (DRD2 (D2 long receptor); Log[Drug] -7): 72.0078 and 74.6368 and 66.9645 and 59.2359 and 63.6719 and 58.7266 and 59.326 and 73.941 and 65.8379 | β-arrestin2 recruitment response at DRD2 (source data, replicate values) (DRD2 (D2 long receptor); Log[Drug] -7.52): 37.8418 and 44.9592 and 58.6118 and 43.0054 and 55.0074 and 48.586 and 48.419 and 72.5528 and 64.0624 | Response, Fig_S11c dose-response (DRD2 (D2 long receptor); Log[Drug] -7.52): 37.8418 and 44.9592 and 58.6118 and 43.0054 and 55.0074 and 48.586 and 48.419 and 72.5528 and 64.0624 | β-arrestin2 recruitment response at DRD2 (source data, replicate values) (DRD2 (D2 long receptor); Log[Drug] -8): 15.3268 and 15.1148 and 16.7449 and 27.4037 and 26.6311 and 23.8074 and 19.9269 and 24.9446 and 21.2413 | Response, Fig_S11c dose-response (DRD2 (D2 long receptor); Log[Drug] -8): 15.3268 and 15.1148 and 16.7449 and 27.4037 and 26.6311 and 23.8074 and 19.9269 and 24.9446 and 21.2413 | β-arrestin2 recruitment response at DRD2 (source data, replicate values) (DRD2 (D2 long receptor); Log[Drug] -8.52): 4.375 and 3.995 and 5.741 and 6.567 and 6.611 and 6.201 and 5.912 and 5.884 and 4.408 | Response, Fig_S11c dose-response (DRD2 (D2 long receptor); Log[Drug] -8.52): 4.375 and 3.995 and 5.741 and 6.567 and 6.611 and 6.201 and 5.912 and 5.884 and 4.408 | β-arrestin2 recruitment response at DRD2 (source data, replicate values) (DRD2 (D2 long receptor); Log[Drug] -9): 3.657 and 3.173 and 3.675 and 2.9749 and 3.073 and 3.47 and 2.665 and 3.951 and 5.063 | Response, Fig_S11c dose-response (DRD2 (D2 long receptor); Log[Drug] -9): 3.657 and 3.173 and 3.675 and 2.9749 and 3.073 and 3.47 and 2.665 and 3.951 and 5.063 | β-arrestin2 recruitment response at DRD2 (source data, replicate values) (DRD2 (D2 long receptor); Log[Drug] -9.52): 2.783 and 2.8126 and 2.809 and 2.846 and 2.583 and 2.72 and 1.765 and 1.2028 and 2.471 | Response, Fig_S11c dose-response (DRD2 (D2 long receptor); Log[Drug] -9.52): 2.783 and 2.8126 and 2.809 and 2.846 and 2.583 and 2.72 and 1.765 and 1.2028 and 2.471 | β-arrestin2 recruitment response at DRD2 (source data, replicate values) (DRD2 (D2 long receptor); Log[Drug] -10): 3.027 and 2.494 and 2.707 and 2.723 and 2.793 and 2.57 and 1.765 and 1.586 and 1.567 | Response, Fig_S11c dose-response (DRD2 (D2 long receptor); Log[Drug] -10): 3.027 and 2.494 and 2.707 and 2.723 and 2.793 and 2.57 and 1.765 and 1.586 and 1.567 | β-arrestin2 recruitment response at DRD2 (source data, replicate values) (DRD2 (D2 long receptor); Log[Drug] -10.52): 2.869 and 2.577 and 2.7076 and 2.741 and 2.285 and 2.767 and 1.576 and 1.95 and 2.499 | Response, Fig_S11c dose-response (DRD2 (D2 long receptor); Log[Drug] -10.52): 2.869 and 2.577 and 2.7076 and 2.741 and 2.285 and 2.767 and 1.576 and 1.95 and 2.499 | β-arrestin2 recruitment response at DRD2 (source data, replicate values) (DRD2 (D2 long receptor); Log[Drug] -11): 2.286 and 2.31 and 2.497 and 2.358 and 2.303 and 2.397 and 3.984 and 1.567 and 2.499 | Response, Fig_S11c dose-response (DRD2 (D2 long receptor); Log[Drug] -11): 2.286 and 2.31 and 2.497 and 2.358 and 2.303 and 2.397 and 3.984 and 1.567 and 2.499 | β-arrestin2 recruitment response at DRD2 (source data, replicate values) (DRD2 (D2 long receptor); Log[Drug] -11.52): 2.417 and 3.403 and 2.6551 and 2.344 and 2.523 and 2.357 and 1.752 and 2.8723 and 2.669 | Response, Fig_S11c dose-response (DRD2 (D2 long receptor); Log[Drug] -11.52): 2.417 and 3.403 and 2.6551 and 2.344 and 2.523 and 2.357 and 1.752 and 2.8723 and 2.669 | β-arrestin2 recruitment response at DRD2 (source data, replicate values) (DRD2 (D2 long receptor); Log[Drug] -12): 2.236 and 2.366 and 2.369 and 2.676 and 2.167 and 2.127 and 2.148 and 1.023 and 3.799 | Response, Fig_S11c dose-response (DRD2 (D2 long receptor); Log[Drug] -12): 2.236 and 2.366 and 2.369 and 2.676 and 2.167 and 2.127 and 2.148 and 1.023 and 3.799 | GPCRome agonism screen response (320 non-olfactory GPCRs; receptor LTB4R2B): 0.6938 and 0.9232 and 0.5075 | GPCRome agonism screen response (320 non-olfactory GPCRs; receptor NPS): 0.4686 and 1.378 and 0.7119 and 0.6607 | GPCRome agonism screen response (320 non-olfactory GPCRs; receptor PK1): 0.8997 and 0.9125 and 0.8846 and 0.857 | GPCRome agonism screen response (320 non-olfactory GPCRs; receptor PRRP): 0.431 and 1.1359 and 1.866 and 0.5549 | GPCRome agonism screen response (320 non-olfactory GPCRs; receptor QRFP): 0.8017 and 1.022 and 0.9768 and 1 | GPCRome agonism screen response (320 non-olfactory GPCRs; receptor SSSTR): 0.8501 and 0.9752 and 2.465 and 0.6314 | EC50 (DRD2 F1103.28A [1]): > 10000 nM | Ki (DRD2 F1103.28A [2]; DRD2 F1103.28A, read-out: Ki): 720 nM | affinity increase (binding enhanced), mutant vs wild type (DRD2 F1103.28A [2]; DRD2 Phe110^3.28Ala vs wild-type DRD2): 2.64 fold
